Patent US20250034130A1, “Crystal Form of Tolebrutinib, Preparation Method Therefor and Use Thereof” (Principia Biopharma Inc., priority 2021, published 2025)
Entries after “also recorded” stand apart in the source; their conditions may differ.

Legend:
Format in all cases: physicochemical
[1] = Stability at high temperature (80° C., 2 days, purity by UPLC); settings: for Chemical purity (in words) / Purity change: 2 days; for Purity change: glass vial with cap
Procedure: (§1) The related substance in the present disclosure was detected by UPLC and the parameters are shown below.
Certain amounts of Form CSII of the present disclosure and the prior art amorphous form were weighted and stored at 80° C. for 2 days, and the purities of the solids before and after storage were determined by UPLC, the results are as shown in Table 4.
Certain amounts of Form CSIII of the present disclosure and the prior art amorphous form were weighted and stored at 80° C. for 2 days, and the purities of the solids before and after storage were determined by UPLC, the results are as shown in Table 11.
Certain amounts of Form CSIV of the present disclosure and the prior art amorphous form were stored at 80° C. for 2 days, and the purities of the solids before and after storage were determined by UPLC, the results are as shown in Table 17.

[2] = Light stability (Chinese Pharmacopoeia method, purity by UPLC); settings: light not less than 1.2×10^6 lux-hr, near-UV not less than 200 W-hr/m^2; for Purity change: 1 week; for Chemical purity (in words): about 1 week
Excerpt: as §1
(§2) Certain amounts of Form CSII of the present disclosure and the prior art amorphous form were weighted and stored for about 1 week, in accordance with the method of the Chinese Pharmacopoeia, under the condition that the total illumination of the light source was not less than 1.2×106 lux-hr and the energy of the near-ultraviolet lamp was not less than 200 W-hr/m^2, the purities of the solids before and after storage were measured by UPLC and the results are shown in Table 5.
as §2, with “CSIII” for “CSII”, “1.2×10^6” for “1.2×106”, “12.” for “5.”
as §2, with “CSIV” for “CSII”, “1.2×10^6” for “1.2×106”, “18.” for “5.”

[3] = Physical and chemical stability on storage in opened packages (purity by UPLC, solid form by XRPD)
Procedure: X-ray powder diffraction patterns in the present disclosure were acquired by a Bruker X-ray powder diffractometer. The parameters of the X-ray powder diffraction method of the present disclosure are as follows: • X-Ray: Cu, Kα • Kα1 (Å): 1.54060; Kα2 (Å): 1.54439 • Kα2/Kα1 intensity ratio: 0.50
as §1
Said “room temperature” is not a specific temperature, but a temperature range of 10-30° C. Said “open packaged” is putting the sample into a glass vial, covering the vial with aluminum foil, and punching 5-10 holes on the foil.
(§3) Form CSII of the present disclosure and the prior art amorphous form were weighed and stored under 25° C./60% RH, 40° C./75% RH and 60° C./75% RH conditions, in opened packages, respectively. The purity and solid form were determined by UPLC and XRPD. The results are listed in Table 3, and the overlaid XRPD patterns of Form CSII before and after storage for stability evaluation are shown in FIG. 4.
as §3, with “CSIII” for “CSII”, “10,” for “3,”, “9.” for “4.”
as §3, with “CSIV” for “CSII”, “C./60%” for “C./60% RH, 40° C./75%”, “40°” for “60°”, “16,” for “3,”, “15.” for “4.”

[4] = Hygroscopicity by DVS (0% RH-95% RH-0% RH at 25° C.); settings: for Weight gain relative to that of the prior art / Weight gain at 80% RH: 80% RH; for Weight gain at 80% RH: DVS; for Weight gain at 80% RH / Hygroscopicity class: 25° C.; for Crystalline state after the DVS test: XRPD before and after DVS; for Hygroscopicity class: weight gain at 80% RH
Procedure: DVS was measured via an SMS (Surface Measurement Systems Ltd.) intrinsic DVS instrument.
Parameters for DVS method are as follows: • Temperature: 25° C. • Gas and flow rate: nitrogen, 200 mL/min • RH range: 0% RH to 95% RH • ^1H NMR were collected from a Bruker Avance II DMX 400M HZ NMR spectrometer. 1-5 mg of sample was weighed and dissolved in 0.5 mL of deuterated dimethyl sulfoxide to obtain a solution with a concentration of 2-10 mg/mL.
Certain amounts of Form CSII of the present disclosure and the prior art amorphous form were sampled for hygroscopicity tests using DVS instrument. The weight change at each relative humidity was recorded during the cycle of 0% RH-95% RH-0% RH at 25° C.
Description and definition of hygroscopicity (general notice 9103 drug hygroscopicity test guidelines in 2020 edition of Chinese Pharmacopoeia, experimental condition: 25±1° C., 80±2% RH):
Certain amounts of Form CSIII of the present disclosure and the prior art amorphous form were sampled for hygroscopicity tests using DVS instrument. The weight change at each relative humidity was recorded during the cycle of 0% RH-95% RH-0% RH at 25° C.
Certain amounts of Form CSIV of the present disclosure and the prior art amorphous form were sampled for hygroscopicity tests using DVS instrument. The weight change at each relative humidity was recorded during the cycle of 0% RH-95% RH-0% RH at 25° C.

[5] = Grinding stability (manual grinding 5 minutes in a mortar, XRPD); settings: ground manually 5 minutes in a mortar
Procedure: Form CSII was grounded manually for 5 minutes in a mortar. XRPD was tested before and after the grinding.
Form CSIII was grounded manually for 5 minutes in a mortar. XRPD was tested before and after the grinding.
Form CSIV was grounded manually for 5 minutes in a mortar. XRPD was tested before and after the grinding.

[6] = Stability of crystalline form in tablet formulation process (XRPD before and after); settings: tablets per Table 7 and Table 8, XRPD
Procedure: According to the formulation and process in Table 7 and Table 8, the tablets were prepared with an appropriate amount of Form CSII of the present disclosure. XRPD was tested before and after formulation.
According to the formulation and process in Table 7 and Table 8, the tablets were prepared with an appropriate amount of Form CSIII of the present disclosure. XRPD was tested before and after formulation.
According to the formulation and process in Table 7 and Table 8, the tablets were prepared with an appropriate amount of Form CSIV of the present disclosure. XRPD was tested before and after formulation.

[7] = 25° C./60% RH, 6 months, open package
[8] = 40° C./75% RH, 6 months, open package
[9] = 60° C./75% RH, 1 month, open package
[10] = 25° C./60% RH, 2 months, open package
[11] = 40° C./75% RH, 2 months, open package

Row | Compound | Chemical purity (in words) [1] | Purity change [1] | Purity change [2] | Chemical purity (in words) [2] | Chemical purity during storage ([3]; 25° C./60% RH) | Time for which the crystalline state doesn't change / form is stable ([3]; 25° C./60% RH) | Time for which the crystalline state doesn't change / form is stable ([3]; 40° C./75% RH) | Purity ([3]; Initial) | Solid form ([3]; Initial) | Weight gain relative to that of the prior art [4] | Weight gain at 80% RH [4] | Crystalline state after the DVS test [4] | Hygroscopicity class [4] | Crystalline state after grinding [5] | Crystalline state after formulation process (mixed with excipients, tableted) [6] | further results
1 | C=CC(=O)N1CCC[C@@H](n2c(=O)n(-c3ccc(Oc4ccccc4)cc3)c3c(N)nccc32)C1 [Form CSIII, (R)-1-(1-acryloylpiperidin-3-yl)-4-amino-3-(4-phenoxyphenyl)-1H-imidazo[4,5-c] pyridin-2(3H)-one] | basically remained unchanged | +0.04% | +0.02% | basically remained unchanged | above 99.9% | at least 6 months | at least 6 months | 99.91% | Form CSIII | ⅙ | 0.66% | remained unchanged | slightly hygroscopic | remains unchanged | remained unchanged; also recorded: did not change | Time for which chemical purity remains substantially unchanged [1]: at least 2 days; Time for which there is no change in the purity [2]: at least 1 week; Purity [3, 7]: 99.93%; Purity change [3, 7]: +0.02%; Solid form [3, 7]: Form CSIII; The number of the purities exceeding the qualification thresholds [3, 7]: 0; Chemical purity during storing ([3]; 40° C./75% RH and 60° C./75% RH): above 99.8%; Purity [3, 8]: 99.91%; Purity change [3, 8]: 0%; Solid form [3, 8]: Form CSIII; The number of the purities exceeding the qualification thresholds [3, 8]: 0; Time for which the crystalline state doesn't change ([3]; 60° C./75% RH): at least 1 month; Solid form and purity after storage ([3]; 60° C./75% RH, 1 month): remained basically unchanged; Purity [3, 9]: 99.86%; Purity change [3, 9]: −0.05%; Solid form [3, 9]: Form CSIII; The number of the purities exceeding the qualification thresholds [3, 9]: 0; The number of the purities exceeding the qualification thresholds ([3]; Initial, ICH Q3A (R2) thresholds): 0; Impurity content versus qualification threshold ([3]; throughout the stability investigation processes): did not exceed the qualification thresholds; also recorded: did not exceed the qualificated threshold
2 | C=CC(=O)N1CCC[C@@H](n2c(=O)n(-c3ccc(Oc4ccccc4)cc3)c3c(N)nccc32)C1 [Form CSIV, (R)-1-(1-acryloylpiperidin-3-yl)-4-amino-3-(4-phenoxyphenyl)-1H-imidazo[4,5-c] pyridin-2(3H)-one] | basically remained unchanged | +0.03% | +0.06% | basically remained unchanged | above 99.7% | at least 2 months | at least 2 months | 99.74% | Form CSIV | 1/15 | 0.24% | remained unchanged | slightly hygroscopic | remains unchanged | remained unchanged; also recorded: did not change | Purity [3, 10]: 99.74%; Purity change [3, 10]: 0.00%; Solid form [3, 10]: Form CSIV; Purity [3, 11]: 99.75%; Purity change [3, 11]: +0.01%; Solid form [3, 11]: Form CSIV
